What was measured:
Assay in all cases: IC50 for competition of kinobeads binding (-log10 M (pIC50))
MASTL = target: T1, MASTL (UniProt Q96GX5)
T1 sequence (whole entry): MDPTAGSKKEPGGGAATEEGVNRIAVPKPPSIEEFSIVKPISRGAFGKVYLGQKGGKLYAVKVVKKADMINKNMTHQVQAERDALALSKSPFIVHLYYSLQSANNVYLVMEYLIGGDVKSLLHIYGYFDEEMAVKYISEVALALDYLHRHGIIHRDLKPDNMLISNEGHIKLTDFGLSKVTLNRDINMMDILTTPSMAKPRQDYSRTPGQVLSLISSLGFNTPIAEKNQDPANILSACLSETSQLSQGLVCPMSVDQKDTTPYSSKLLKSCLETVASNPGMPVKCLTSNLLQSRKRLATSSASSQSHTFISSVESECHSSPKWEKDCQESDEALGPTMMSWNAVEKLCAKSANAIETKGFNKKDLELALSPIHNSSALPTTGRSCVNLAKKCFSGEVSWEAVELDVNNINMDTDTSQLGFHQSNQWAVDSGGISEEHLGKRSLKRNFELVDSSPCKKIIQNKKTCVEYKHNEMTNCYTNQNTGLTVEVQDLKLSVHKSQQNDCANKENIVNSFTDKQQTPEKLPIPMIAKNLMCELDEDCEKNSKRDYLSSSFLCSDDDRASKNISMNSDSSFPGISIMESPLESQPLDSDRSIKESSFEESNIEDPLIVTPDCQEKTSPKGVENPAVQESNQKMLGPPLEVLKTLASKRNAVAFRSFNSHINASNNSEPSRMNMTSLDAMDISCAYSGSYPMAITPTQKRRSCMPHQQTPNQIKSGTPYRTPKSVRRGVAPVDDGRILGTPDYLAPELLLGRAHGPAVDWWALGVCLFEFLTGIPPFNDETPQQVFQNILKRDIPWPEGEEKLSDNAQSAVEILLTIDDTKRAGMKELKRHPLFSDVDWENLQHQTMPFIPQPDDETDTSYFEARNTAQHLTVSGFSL

CDC7 = CDC7 (UniProt O00311); settings: assay format: miniaturized (250 µg protein)
CDK10 = CDK10 (UniProt Q15131)
PIP4K2A = target: T2, PIP4K2A (UniProt P48426)
T2 sequence (whole entry): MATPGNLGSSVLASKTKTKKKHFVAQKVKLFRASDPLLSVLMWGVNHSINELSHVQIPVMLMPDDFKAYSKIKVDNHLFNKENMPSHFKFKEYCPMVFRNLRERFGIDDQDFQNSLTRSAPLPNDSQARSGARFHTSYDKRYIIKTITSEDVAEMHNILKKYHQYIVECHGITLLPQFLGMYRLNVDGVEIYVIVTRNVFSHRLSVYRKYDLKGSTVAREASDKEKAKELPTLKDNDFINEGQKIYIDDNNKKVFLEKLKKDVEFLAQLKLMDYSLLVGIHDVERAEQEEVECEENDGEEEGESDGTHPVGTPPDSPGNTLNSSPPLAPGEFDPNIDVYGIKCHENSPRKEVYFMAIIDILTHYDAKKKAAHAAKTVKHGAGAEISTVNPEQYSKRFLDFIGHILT

MAST3 = MAST3 (UniProt O60307)
KIAA1804 = KIAA1804 (UniProt Q5TCX8)
LOC100128443 = target: LOC100128443
MARK1 = MARK1 (UniProt Q9P0L2)
[1] = assay format: miniaturized (250 µg protein)
[2] = assay format: standard (5 mg protein)

Measured: IC50 (-log10 M)

Chain of CDK10 (Q15131 whole entry): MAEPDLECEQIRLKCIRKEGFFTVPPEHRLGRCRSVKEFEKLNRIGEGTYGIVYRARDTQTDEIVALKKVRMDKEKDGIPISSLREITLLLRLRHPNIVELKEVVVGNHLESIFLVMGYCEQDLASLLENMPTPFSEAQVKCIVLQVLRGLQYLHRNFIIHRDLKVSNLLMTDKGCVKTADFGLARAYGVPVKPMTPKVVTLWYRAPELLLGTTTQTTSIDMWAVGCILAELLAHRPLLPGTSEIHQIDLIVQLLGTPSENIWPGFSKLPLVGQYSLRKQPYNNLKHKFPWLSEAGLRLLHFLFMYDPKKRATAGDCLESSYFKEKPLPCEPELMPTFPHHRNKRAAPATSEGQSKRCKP
Chain of MARK1 (Q9P0L2 whole entry, looked up): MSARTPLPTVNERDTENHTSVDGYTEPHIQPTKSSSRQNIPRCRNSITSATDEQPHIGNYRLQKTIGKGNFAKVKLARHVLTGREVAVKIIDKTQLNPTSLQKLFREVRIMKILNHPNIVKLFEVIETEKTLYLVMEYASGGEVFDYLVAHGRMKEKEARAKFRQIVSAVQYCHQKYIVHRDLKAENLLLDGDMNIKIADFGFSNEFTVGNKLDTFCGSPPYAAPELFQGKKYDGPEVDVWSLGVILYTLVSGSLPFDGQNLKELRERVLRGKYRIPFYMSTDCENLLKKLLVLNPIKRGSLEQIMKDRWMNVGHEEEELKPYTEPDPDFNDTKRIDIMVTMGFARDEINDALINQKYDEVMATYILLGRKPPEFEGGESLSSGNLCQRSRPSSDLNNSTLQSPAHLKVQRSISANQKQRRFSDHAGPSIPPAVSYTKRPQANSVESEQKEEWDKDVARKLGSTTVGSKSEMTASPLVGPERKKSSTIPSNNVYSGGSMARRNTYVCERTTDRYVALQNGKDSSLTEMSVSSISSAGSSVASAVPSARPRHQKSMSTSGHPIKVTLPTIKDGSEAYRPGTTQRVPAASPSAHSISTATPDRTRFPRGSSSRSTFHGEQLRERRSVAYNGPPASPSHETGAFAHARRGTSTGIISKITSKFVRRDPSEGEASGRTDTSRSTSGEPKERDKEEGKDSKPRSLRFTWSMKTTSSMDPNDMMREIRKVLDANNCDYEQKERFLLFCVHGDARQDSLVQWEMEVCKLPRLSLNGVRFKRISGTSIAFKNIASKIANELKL
Chain of MAST3 (O60307 whole entry): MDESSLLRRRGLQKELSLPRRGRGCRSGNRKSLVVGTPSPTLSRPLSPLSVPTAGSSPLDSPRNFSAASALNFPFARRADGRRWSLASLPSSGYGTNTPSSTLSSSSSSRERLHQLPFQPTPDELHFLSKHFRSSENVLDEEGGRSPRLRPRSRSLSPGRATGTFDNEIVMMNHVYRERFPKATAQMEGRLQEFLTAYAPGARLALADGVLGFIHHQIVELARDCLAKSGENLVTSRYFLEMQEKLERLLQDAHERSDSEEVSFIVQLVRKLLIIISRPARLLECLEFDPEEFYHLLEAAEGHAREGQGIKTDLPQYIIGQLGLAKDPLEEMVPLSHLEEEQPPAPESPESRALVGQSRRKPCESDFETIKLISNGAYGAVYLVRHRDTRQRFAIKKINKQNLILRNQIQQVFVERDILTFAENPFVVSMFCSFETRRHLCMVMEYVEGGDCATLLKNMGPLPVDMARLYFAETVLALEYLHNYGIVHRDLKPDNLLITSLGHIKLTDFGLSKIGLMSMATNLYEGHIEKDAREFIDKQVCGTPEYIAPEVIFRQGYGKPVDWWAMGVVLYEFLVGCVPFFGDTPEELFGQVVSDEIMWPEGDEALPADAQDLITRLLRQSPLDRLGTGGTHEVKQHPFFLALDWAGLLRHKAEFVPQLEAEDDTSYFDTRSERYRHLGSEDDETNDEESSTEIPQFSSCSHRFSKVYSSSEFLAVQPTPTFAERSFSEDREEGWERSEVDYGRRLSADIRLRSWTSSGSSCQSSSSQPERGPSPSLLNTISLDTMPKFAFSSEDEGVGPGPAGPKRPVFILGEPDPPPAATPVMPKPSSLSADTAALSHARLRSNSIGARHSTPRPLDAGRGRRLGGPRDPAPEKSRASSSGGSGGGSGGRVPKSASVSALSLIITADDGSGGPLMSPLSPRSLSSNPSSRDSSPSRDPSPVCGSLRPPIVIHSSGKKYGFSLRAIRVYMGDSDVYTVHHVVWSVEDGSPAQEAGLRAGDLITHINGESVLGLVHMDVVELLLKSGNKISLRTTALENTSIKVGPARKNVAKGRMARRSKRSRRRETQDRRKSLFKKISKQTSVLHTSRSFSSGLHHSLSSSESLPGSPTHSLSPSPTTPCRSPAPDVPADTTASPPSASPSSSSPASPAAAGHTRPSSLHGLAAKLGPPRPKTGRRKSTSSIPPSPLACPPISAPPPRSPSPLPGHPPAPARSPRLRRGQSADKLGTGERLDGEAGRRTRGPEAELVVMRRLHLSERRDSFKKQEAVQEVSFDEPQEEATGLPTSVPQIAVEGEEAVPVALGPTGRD
Chain of KIAA1804 (Q5TCX8 whole entry): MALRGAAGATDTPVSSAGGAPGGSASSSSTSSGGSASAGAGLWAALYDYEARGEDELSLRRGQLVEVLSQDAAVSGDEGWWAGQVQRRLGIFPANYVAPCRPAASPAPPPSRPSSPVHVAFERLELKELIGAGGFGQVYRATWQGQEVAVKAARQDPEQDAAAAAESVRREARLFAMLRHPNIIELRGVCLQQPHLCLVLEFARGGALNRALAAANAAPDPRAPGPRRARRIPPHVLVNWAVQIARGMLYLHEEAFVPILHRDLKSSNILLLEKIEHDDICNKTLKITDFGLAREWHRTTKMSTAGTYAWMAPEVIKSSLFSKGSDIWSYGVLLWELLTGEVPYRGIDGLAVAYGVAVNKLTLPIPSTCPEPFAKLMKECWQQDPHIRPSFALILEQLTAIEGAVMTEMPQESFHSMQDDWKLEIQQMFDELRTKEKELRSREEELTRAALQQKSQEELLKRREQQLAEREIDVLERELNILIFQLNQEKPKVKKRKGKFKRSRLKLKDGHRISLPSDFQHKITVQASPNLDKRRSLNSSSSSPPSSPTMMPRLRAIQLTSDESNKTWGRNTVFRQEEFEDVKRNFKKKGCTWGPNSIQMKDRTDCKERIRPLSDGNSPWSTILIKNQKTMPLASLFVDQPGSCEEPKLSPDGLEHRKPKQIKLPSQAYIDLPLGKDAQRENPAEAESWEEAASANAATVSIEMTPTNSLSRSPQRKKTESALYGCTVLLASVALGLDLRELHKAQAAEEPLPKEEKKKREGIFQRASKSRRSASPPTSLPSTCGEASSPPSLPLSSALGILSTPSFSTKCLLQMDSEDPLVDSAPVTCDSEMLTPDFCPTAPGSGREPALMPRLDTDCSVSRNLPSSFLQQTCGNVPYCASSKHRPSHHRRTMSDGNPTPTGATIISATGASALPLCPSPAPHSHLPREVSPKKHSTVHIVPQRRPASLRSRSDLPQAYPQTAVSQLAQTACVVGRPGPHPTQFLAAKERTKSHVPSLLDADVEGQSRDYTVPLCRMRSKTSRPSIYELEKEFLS
Chain of CDC7 (O00311 whole entry, looked up): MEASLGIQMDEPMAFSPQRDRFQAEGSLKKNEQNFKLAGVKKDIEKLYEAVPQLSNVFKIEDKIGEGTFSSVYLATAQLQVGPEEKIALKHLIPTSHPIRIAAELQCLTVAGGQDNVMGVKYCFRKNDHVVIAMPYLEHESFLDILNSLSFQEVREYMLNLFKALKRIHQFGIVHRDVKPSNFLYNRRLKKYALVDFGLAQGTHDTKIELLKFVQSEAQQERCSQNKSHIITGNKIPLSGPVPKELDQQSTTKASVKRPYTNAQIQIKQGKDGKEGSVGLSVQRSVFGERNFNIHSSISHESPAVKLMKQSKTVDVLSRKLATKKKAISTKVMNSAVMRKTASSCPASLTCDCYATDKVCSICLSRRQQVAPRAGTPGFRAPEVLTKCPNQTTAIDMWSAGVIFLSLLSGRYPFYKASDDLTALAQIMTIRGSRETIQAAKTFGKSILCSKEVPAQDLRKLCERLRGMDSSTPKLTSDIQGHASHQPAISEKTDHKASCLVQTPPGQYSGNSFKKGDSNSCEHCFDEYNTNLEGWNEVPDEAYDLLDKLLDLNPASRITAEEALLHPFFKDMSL

Cc1nc(Nc2ncc(C(=O)Nc3c(C)cccc3Cl)s2)cc(N2CCN(CCO)CC2)n1 [dasatinib]
inactive: MASTL; [1] | MASTL; [2] | CDC7 | CDK10; [1] | CDK10; [2] | PIP4K2A; [1] | PIP4K2A; [2] | MAST3; [1] | MAST3; [2] | KIAA1804; [1] | KIAA1804; [2] | LOC100128443; [1] | LOC100128443; [2] | MARK1; [1] | MARK1; [2]
